Laboratory results taken from patent US11426402B2, “IRE1 activating compounds for use in therapy” (The Scripps Research Institute, priority 2019, dated 2022).

Legend:
[1] = target: IRE1 (Homo sapiens, UniProt O75460); experiment: IRE1 phosphorylation by Phos-tag SDS-PAGE and immunoblotting in HEK293T cells; assay type: cell-based; conditions: co-treatment of Tg (500 nM) and 1 μM APY29
Method: (§1) FIG. 3A-FIG. 3D. […] Error bars show SEM for n=3. […] Error bars show SEM for n=3. […] Error bars show SEM for n=3.
Cell lysates were prepared as previously described in RIPA buffer (50 mM Tris, pH 7.5, 150 mM NaCl, 0.1% SDS, 1% Triton X-100, 0.5% deoxycholate and protease inhibitor cocktail (Roche). Total protein concentration in cellular lysates was normalized using the Bio-Rad protein assay. Lysates were then denatured with 1× Laemmli buffer+100 mM DTT and boiled before being separated by SDS-PAGE. Samples were transferred onto nitrocellulose membranes (Bio-Rad) for immunoblotting and blocked with 5% milk in Tris-buffered saline, 0.5% Tween-20 (TBST) following incubation overnight at 4° C. with primary antibodies. Membranes were washed in TBST, incubated with IR-Dye conjugated secondary antibodies and analyzed using Odyssey Infrared Imaging System (LI-COR Biosciences). Quantification was carried out with LI-COR Image Studio software.
Compounds that activate IRE1 through binding the IRE1 kinase active site and inhibiting IRE1 autophosphorylation can elicit off-target activity likely associated with binding to other protein kinases.^20, 35, 36 Thus, the purpose of this example was to define the dependence of the present compounds on IRE1 kinase activity. HEK293T cells were treated with compound 198, 474, or 970 in the absence or presence of Tg, and IRE1 phosphorylation was monitored by using Phos-tag SDS-PAGE and immunoblotting. As a control, cells were treated with APY29—an IRE1 kinase site inhibitor that allosterically activates the IRE1 RNAse^20 in the absence or presence of Tg.

[2] = tested on: RIDD targets SCARA3, Bloc1s1 and Col6A1; experiment: IRE1 RIDD activity from the RNAseq dataset in HEK293T cells; assay type: cell-based, human; conditions: 6 hours
Method: Cells were lysed and total RNA collected using the RNeasy mini kit, according to manufacturer's instructions (Qiagen). Conventional RNA-seq was conducted via BGI Americas on the BGI Proprietary platform, providing single-end 50 bp reads at 20 million reads per sample. Alignment of sequencing data was done using DNAstar Lasergene SeqManPro to the GRCh37. p 13 human genome reference assembly, and assembly data were imported into ArrayStar 12.2 with QSeq (DNAStar Inc.) to quantify the gene expression levels and normalization to reads per kilobase per million (RPKM). Differential expression analysis and statistical significance calculations between different conditions was assessed using “DESeq” in R, compared to vehicle-treated cells, using a standard negative binomial fit of the RPKM data to generate Fold Change quantifications.
Also evaluated was IRE1 RIDD activity induced by the compounds using the RNAseq dataset. Despite robust IRE1/XBP1s transcriptional activity following 6 hours of treatment, there was no evidence for RIDD after the same 6 hours.

[3] = tested on: XBP1 splicing; experiment: XBP1 splicing in HEK293T cells with or without KIRA6; assay type: cell-based
Method: To amplify the spliced and unspliced XBP1 mRNA, XBP1 primers were used as described previously.^21 PCR products were electrophoresed on 2.5% agarose gel. GAPDH (forward 5′[…]3′, reverse 5′[…]3′) was used as a loading control. The size difference between the spliced and the unspliced XBP1 is 26 nucleotides.
Next was determined the dependence of compound-dependent IRE1 RNAse activation on autophosphorylation. HEK293T cells were initially treated with the compounds in the absence or presence of KIRA6—a compound that binds the nucleotide binding pocket and inhibits both IRE1 kinase and RNAse activity^36. Co-treatment with KIRA6 blocked compound-dependent XBP1splicing.

[4] = tested on: IRE1/XBP1s signaling pathway; experiment: XBP1-RLuc splicing reporter in HEK293T-REx cells; assay type: cell-based; conditions: activators 10 μM, 4 μ8c 32 μM, 18 hr
Method: FIG. 2A and FIG. 2B. Activation of RLuc luminescence in HEK293T-Rex cells stably expressing XBP1s-RLuc treated with 10 μM IRE1 activators in the presence or absence of IRE1 inhibitor 4 μ8c (32 μM) for 18 hr. Luminescence is shown as % signal relative to Tg treatment (500 nM; 18 hr). Error bars represent standard deviation for n=3 replicates (FIG. 2A), Activation of RLuc luminescence in HEK293T-Rex cells stably expressing XBP1s-RLuc treated with the indicated concentrations of IRE1 activator compounds for 18 hr. Luminescence is shown as % signal relative to Tg treatment (500 nM; 18 hr) Error bars represent standard deviation for n=3 replicates (FIG. 2B).
HEK293T-Rex cells incorporating either the XBP1s-Rluc or ERSE-FLuc reporters were collected by trypsinization and resuspended at a density of 500,000 cells per mL. The assay was started by dispensing 5 μL of cell suspension into each well of white, solid-bottom 1536-well plates using a flying reagent dispenser (FRD) and placed into an online incubator for 3 hr. Cells were then treated with 34 nL/well of either test compounds to give final concentrations of 5.17 μM, DMSO (low control, final concentration 0.68%, 0% activation) or 37 μM of Delta-7 thapsigargin (high control, final concentration 500 nM, 100% activation). Plates were incubated for 18 hr at 37° C., removed from the incubator and equilibrated to room temperature for 10 min. Luciferase activity was detected by addition of 5 μL of ONE-Glo reagent (Promega) to each well. After a 10 min incubation time, light emission was measured with the ViewLux reader (PerkinElmer).
The percent activation of each test compound was calculated as follows: % Activation=100*(Test Compound-Median Low Control)/(Median High Control Median Low Control). Primary screening of the 646,275 compound library at Scripps Florida yielded 10,114 hits for XBP1s Renilla Luciferase activity at ≥13.83% activation by thapsigargin. Compounds that hit in more than 7 screens (promiscuity score) were eliminated, as well as those that elicited HSP70 activation. The top 6,391 remaining compounds (activation≥16.36%) were moved forward to triplicate confirmation screening and HEK TREX CTG cytotoxicity counterscreening. Duplicates were removed from the resulting list, and the top 638 activating compounds (≥15.92%) were moved forward for triplicate titration screening and HEK TREX CTG titration counterscreening.
A HEK293^T-REx cell line that stably expresses a XBP1-Renilla luciferase (XBP1-RLuc) splicing reporter was used to identify compounds that activated the IRE1/XBP1s signaling pathway^37. Activated IRE1selectively splices mRNA encoded by this reporter, resulting in a frame-shift that allows expression of the active Renilla luciferase enzyme^37. […]

[5] = tested on: DNAJB9; assay type: cell-based; conditions: 4 μ8c 32 μM
[6] = tested on: BiP; experiment: qPCR of ATF6-regulated gene BiP in HEK293T cells; assay type: cell-based
Method: as §1
The compounds were measured for their abilities to induce expression of ER stress-responsive genes CHOP and BiP (or […]) regulated downstream of the PERK and ATF6 UPR signaling pathways, respectively^8, 40. The Tg-dependent expression of these two genes is largely insensitive to 4 μ8c, confirming their induction through an IRE1/XBP1s independent mechanism.

[7] = tested on: secreted Aβ; experiment: Aβ ELISA of media conditioned on CHO 7PA2 cells (V717F APP); assay type: cell-based; conditions: 4 μ8c 32 μM
Method: (§2) FIGS. 5A-5D. […] Cells were treated for 18 hours, media was then replaced and conditioned in the presence of treatments for 24 hours before harvesting for ELISA assay. Error bars represent SEM for n=3 replicates. Statistics calculated from one-tailed Student's t-test. *p<0.05, **p<0.01, ***p<0.001 (FIG. 5A). Quantification of media and lysate immunoblots from 474 treatment (10 μM) of APP. Error bars represent Standard Deviation for n=3 replicates. Statistics calculated from one-tailed Student's t-test. *p<0.05, **p<0.01 ***p<0.001 (FIG. 5B). Plot showing fraction of total remaining APP at each time point after S35 metabolic labeling of newly synthesized protein, accounting for the sum of APP in lysate and media. Error bars represent Standard Deviation for n=3 replicates. Statistics calculated from one-tailed Student's t-test. *p<0.05, **p<0.01, ***p<0.001 (FIG. 5C). Plot showing fraction of secreted APP collected at 2 hours after metabolic labeling. Error bars represent Standard Deviation for n=3 replicates. Statistics calculated from one-tailed Student's t-test. *p<0.05, **p<0.01, ***p<0.001 (FIG. 5D).
7PA2 or 7WD10 cells were cultured on 96-well plates (Corning) and treated with IRE1 activating compounds +/−4 μ8c overnight. The medium was then replaced at 50% volume with treatment remaing, culture medium was collected after 24 hours. The medium was analyzed by an AP ELISA as follows. Monoclonal 6E10 anti-Aβ(residues 1-17) mouse IgG1, (Biolegend) was coated in […] carbonate buffer, pH 9.6, at 4° C. overnight on high binding assay black plates (Costar), washed with TBST (tris buffered saline with 0.05% Tween 20) and blocked with 5% non-fat milk in TBST. Samples and standards (condition 7PA2 media) were incubated for 1.5 hr, followed by addition of 4G8 antibody [anti-Aβ residues 17-24, mouse IgG2b (Biolegend)] conjugated to horseradish peroxidase (hrp) and incubated for 1.5 hr at 25° C. After washing, ABM substrate was added, followed by detection with an absorbance plate reader.
ELISA was used to monitor Aβ in media conditioned on a CHO cell line stably expressing the destabilized, disease-associated V717F APP mutant (CHO^7PA2)^45 treated with or without compounds 198, 474, and 970. […] The reduction in A secretion can be attributed to IRE1 activation because the reduced extracellular accumulation of Aβ is blocked by co-treatment with the active site IRE1 inhibitor 4 μ8c (FIG. 5A).

[8] = tested on: APP; experiment: APP immunoblots of lysates and conditioned media of CHO 7PA2 cells; assay type: cell-based; conditions: with compound 474
Method: as §2, with “5D). […]” for “5D).”

Chain of IRE1 (O75460 19-977): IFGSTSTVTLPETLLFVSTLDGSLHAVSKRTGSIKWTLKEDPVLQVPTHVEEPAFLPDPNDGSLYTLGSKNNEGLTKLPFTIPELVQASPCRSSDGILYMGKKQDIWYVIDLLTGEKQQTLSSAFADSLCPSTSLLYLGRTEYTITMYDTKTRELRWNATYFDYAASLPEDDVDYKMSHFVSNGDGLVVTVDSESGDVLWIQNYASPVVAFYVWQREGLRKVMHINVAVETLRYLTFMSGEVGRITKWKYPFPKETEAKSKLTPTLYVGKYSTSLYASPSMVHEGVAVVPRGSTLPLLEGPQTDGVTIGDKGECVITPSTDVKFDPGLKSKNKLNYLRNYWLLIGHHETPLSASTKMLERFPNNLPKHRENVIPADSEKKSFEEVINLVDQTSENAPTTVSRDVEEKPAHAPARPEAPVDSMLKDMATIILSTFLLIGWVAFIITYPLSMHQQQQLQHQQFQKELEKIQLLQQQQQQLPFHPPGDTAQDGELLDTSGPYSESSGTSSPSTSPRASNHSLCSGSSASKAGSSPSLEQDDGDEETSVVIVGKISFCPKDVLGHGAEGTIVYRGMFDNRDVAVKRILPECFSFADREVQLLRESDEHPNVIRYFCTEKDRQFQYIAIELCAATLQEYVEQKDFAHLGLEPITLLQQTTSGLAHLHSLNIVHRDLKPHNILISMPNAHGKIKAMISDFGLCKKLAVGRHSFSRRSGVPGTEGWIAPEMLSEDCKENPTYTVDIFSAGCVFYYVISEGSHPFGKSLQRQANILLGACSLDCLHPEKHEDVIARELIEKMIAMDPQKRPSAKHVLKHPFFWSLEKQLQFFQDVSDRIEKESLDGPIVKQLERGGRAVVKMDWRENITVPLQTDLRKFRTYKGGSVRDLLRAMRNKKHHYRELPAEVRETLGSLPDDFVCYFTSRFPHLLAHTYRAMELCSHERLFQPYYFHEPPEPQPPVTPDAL

c1cc(Nc2cc(C3CC3)[nH]n2)nc(Nc2ccc3nc[nH]c3c2)n1 [APY29, reference compound]
IRE1 phosphorylation [1]: significant reductions

C/C=C(/C)C(=O)O[C@H]1C(C)=C2[C@H]([C@@H]1OC(=O)CCCCCCC)[C@@](C)(OC(C)=O)C[C@H](OC(=O)CCC)[C@@]1(O)[C@H]2OC(=O)[C@@]1(C)O [Tg, thapsigargin]
levels of RIDD targets SCARA3, Bloc1s1 and Col6A1 [2]: reduced

CC(C)(C)c1nc(-c2ccc(NC(=O)Nc3cccc(C(F)(F)F)c3)c3ccccc23)c2c(N)nccn12 [KIRA6]
effect of KIRA6 co-treatment on compound-dependent XBP1 splicing [3]: blocked

Cc1cc(=O)oc2c(C=O)c(O)ccc12 [4 μ8c, reference compound]
effect of 4 μ8c co-administration on compound-dependent XBP1 splicing reporter activation [4]: blocked | effect of 4 μ8c co-treatment on compound-increased DNAJB9 expression [5]: inhibited | effect of co-treatment on compound-dependent BiP increase [6]: blocked | effect of 4 μ8c co-treatment on reduced extracellular Aβ [7]: blocked | effect of 4 μ8c co-treatment on reduced APP levels [8]: reversed
